Test results reported in ChEMBL document CHEMBL1141439, “An antiproliferative bis-prenylated quinone from the New Zealand brown alga Perithalia capillaris” (J Nat Prod, 2007).

Columns and labels:
Neutrophil = assay: Inhibition of superoxide production in human neutrophils; assay type: functional, cell-based
HL-60 = assay: Antiproliferative activity against human HL60 cells; assay type: functional, cell-based

SMILES | IC50 (Neutrophil) [µM] | IC50 (HL-60) [µM]
C=CC(C)(C)c1cc2c(cc1O)C=CC(C)(C)O2 | 238 | 5.6
C=CC(C)(C)c1ccc(O)c(CC=C(C)C)c1 | 29 | 2.7
C=CC(C)(C)C1=CC(=O)C(CC=C(C)C)=CC1=O | 2.1 | 0.34
O=C1C2=C(C=CC(C(=O)O)N2)C(=O)C2=C1NCCS2(=O)=O (stereo not drawn) | 1.5 | 73
